In one assay the test system is conscious beagle dogs. The assay can be described thus: Hemodynamic profile in conscious beagle dogs. The class given is in vivo, beagle dog. As to conditions: for mean arterial and venous pressure: 0.01-1 μmol/kg i.v. and 1-10 μmol/kg p.o.; for arterial vessel compliance / cardiac output: i.v. and p.o.; for effectiveness in reducing arterial and central venous pressure compared with GTN (dose-response curves): versus GTN and IS-5-N. From the text: The hemodynamic profile of SPM 5185 and SPM 5186 in direct comparison to classical nitrates was investigated in conscious beagle dogs.

Assay [1] concerns normotonous conscious rats and spontaneous hypertensive rats. The assay can be described thus: Peroral application to conscious rats: arterial pressure and heart rate. The class given is in vivo, rat.
Assay [2] relates to soluble guanylate cyclase. The assay can be described thus: Stimulation of soluble guanylate cyclase. The class given is biochemical. Particulars: for stimulation of guanylate cyclase, dependence on cysteine: with or without cysteine.
Assay [3] concerns precontracted rat aortic rings. The assay can be described thus: Relaxation of precontracted rat aortic rings. As to conditions: for EC50: read-out: EC50 of concentration-dependent relaxation; for potency relative to ISDN (factor): versus isosorbid dinitrate. From the text: Compounds SPM 5185 and SPM 5186 caused a similar concentration-dependent relaxation of precontracted rat aortic rings with a potency exceeding that of ISDN (isosorbid dinitrate) by a factor of 5 (EC50 approx. 10^-6 M).

The nature of assay [4]: NO release / rate of NO formation from organic nitrates. As to conditions: pH 7.4; for rate of NO formation: 1 mM compound, same conditions as ISDN.
The test system of assay [5] is normotonous (WKY) and spontaneously hypertensive rats (SHR). The assay can be described thus: Endothelium dependent and independent blood pressure regulation in chronically instrumented conscious rats (acetylcholine and adenosine as test stimuli). The class given is in vivo, rat. As to conditions: single oral application. The source says:
The effect of a single peroral application of SPM 5186 on endothelium dependent and independent blood pressure regulation was investigated in chronically instrumented conscious rats with acetylcholine and adenosine serving as test stimuli.

SMILES strings stand for the structures.

Turning to `CCOC(=O)[C@H](CSC(=O)C(C)NC(C)=O)NC(=O)C(C)(C)CO[N+](=O)[O-]` (stereo partly drawn) [SPM 5185, N-nitrato-pivaloyl-S-(N-acetyl-alanyl)-L-cysteine ethyl ester], in the assay on conscious beagle dogs, the “estimated duration of action” value is recorded as “long-acting nitrates”; the “mean arterial and venous pressure” value is given as “dose-dependent decrease”; the arterial vessel compliance entry was “enhanced”; the cardiac output result is “remained unaffected”. Moreover, the “effectiveness in reducing arterial and central venous pressure compared with GTN (dose-response curves)” value in the assay with conscious beagle dogs is listed as “even more effective than the most potent classical nitrate GTN”. In assay [1] (normotonous conscious rats), the heart rate result is listed as “only a slight increase” and the mean arterial pressure result is “nearly no influence”. Moreover, the “stimulation of guanylate cyclase, dependence on cysteine” value in assay [2] is given as “stimulated guanylate cyclase only in the presence of cysteine”. Further, in assay [3], the EC50 was around 1 µM and the “potency relative to ISDN (factor)” value is 5. For the same compound, the “rate of NO formation” value in assay [4] came to 35.1±5.1 nM NO/min.

For the compound `CCOC(=O)[C@H](CSC(=O)CNC(C)=O)NC(=O)C(C)(C)CO[N+](=O)[O-]` [SPM 5186, N-nitrato-pivaloyl-S-(N-acetyl-glycyl)-L-cysteine ethyl ester], in the assay on conscious beagle dogs, the “estimated duration of action” value was “long-acting nitrates”; the “mean arterial and venous pressure” value was “dose-dependent decrease”; the arterial vessel compliance entry is “enhanced”; the cardiac output result is “remained unaffected”. Moreover, the “effectiveness in reducing arterial and central venous pressure compared with GTN (dose-response curves)” value with conscious beagle dogs is “even more effective than the most potent classical nitrate GTN”. Besides, the “alteration of endogenous dilator mechanisms” value in assay [5] was “Neither in normotonous (WKY) nor in spontaneously hypertensive rats (SHR) could any significant alteration of endogenous dilator mechanisms be observed”. In addition, the “systolic and diastolic arterial blood pressure” value in assay [1] (same dose, spontaneous hypertensive rats) is reported as “marked decrease”. In addition, the “stimulation of guanylate cyclase, dependence on cysteine” value in assay [2] is reported as “stimulated guanylate cyclase only in the presence of cysteine”. In assay [3], the EC50 is around 1 µM and the “potency relative to ISDN (factor)” value was 5. Besides, in assay [4], the “rate of NO formation” value is reported as 24.8±5.4 nM NO/min.

On to `CCOC(=O)[C@H](CS)NC(=O)C(C)(C)CO[N+](=O)[O-]` [SPM 3672, nitratopivaline carboxylic acid-L-cysteine ethyl ester, reference compound], for which the “stimulation of soluble guanylate cyclase” value in assay [2] (absence of exogenous cysteine) is reported as “stimulated soluble guanylate cyclase”. In addition, the “effect of addition of cysteine on enzyme stimulation” value in assay [2] (addition of cysteine) is reported as “did not further enhance enzyme stimulation”. Further, the “spontaneous NO release” value in assay [4] (absence of exogenous cysteine, concentration of 1 mM) came to 42.7±9.8 nM NO/min.
